In patent US8936787B2, “Peptides promoting lipid efflux” (The United States of America as represented by the …, priority 2008, dated 2015):
Entries after “also recorded” stand apart in the source; their conditions may differ. Square brackets hold non-standard residues; d marks the D form. Ends that are not written are not given here. Peptide text beside a SMILES is read from it.

Assays:
[1] = system: HeLa cells stably transfected with human ABCA1 cDNA (ABCA1 cells); assay: Cholesterol and phospholipid efflux from ABCA1 cells; format: cell-based; details: for cholesterol efflux from ABCA1 cells to detergent: sublytic concentration (taurodeoxycholate 0.02%, 1 hour)
Experimental: (§1) Percentage efflux was calculated after subtracting the radioactive counts in the blank media (αMEM plus 1 mg/ml of BSA), and expressed as the percent of total radioactive counts removed from the cells during the efflux period.
(§2) Cell fixation was performed by a 10 minute treatment with 3% paraformaldehyde in phosphate buffered saline (PBS), followed by three washes with blank media. Lactate dehydrogenase (LDH) release from cells into the media was measured enzymatically (Roche Diagnostics, Indianapolis, Ind.) and expressed, after subtraction of LDH released into blank media, as the percentage of total cell LDH. Total cell LDH was determined after cell solubilization with 1% Triton X-100.

[2] = system: control cells; assay: LDH release from control cells; format: cell-based; details: 40 μg/ml for 18 hours
Experimental: as §2
(§3) The microsolubilization of the plasma membrane of cells could, therefore, be potentially cytotoxic, but no morphologic effect was observed on the cells after incubation with the peptides or apoA-I, during the efflux experiments. Incubation of the cells with L-37pA and D-37pA at the maximum concentration and time used for the efflux studies (40 μg/ml for 18 hours) did, however, consistently result in the release of a small amount of LDH from both cell lines (control cells: L-37pA (6.1%±0.2), D-37pA (6.6%±0.1); ABCA1 cells: L-37pA (4.3%±0.04), D-37pA (5.7%±0.1)).

[3] = system: ABCA1 cells; assay: LDH release from ABCA1 cells; format: cell-based, human; details: 40 μg/ml for 18 hours
Experimental: as §2, §3

[4] = system: HeLa cells transfected with only a hygromycin-resistant control plasmid (control cells); assay: Cholesterol and phospholipid efflux from control cells; format: cell-based; details: for lipid (cholesterol and phospholipid) efflux from control cells: 18 hours
Experimental: as §1, §2

[5] = system: C57B1/6 mice; assay: Plasma triglycerides in C57B1/6 mice, 18A-C-II; format: in vivo; details: 1 mg (30 mg/kg) co-injected
Experimental: FIG. 18 is a graph illustrating the ability of 18A-C-II:POPC peptide (peptide with SEQ ID NO: 70) to prevent hypertriglyceridemia. The 18A-C-II:POPC peptide was lipidated with POPC at the ratio of 1:7. Hypertriglyceridemia was induced in C57B1/6 mice by a 2 mg (60 mg/kg) bolus intravenous (IV) injection of free 5A peptide (Δ). […] In addition, a single IV dose of 1 mg of the 18A-C-II:POPC peptide lowered the plasma triglyceride levels in normal C57B1 mice (□) compared to saline (⋄).
18A-C-II peptide (SEQ ID NO: 70) was complexed with POPC at a 1:7 molar ratio using a co-lyophilization procedure by which the free peptide and POPC were co-dissolved in glacial acetic acid and lypophilized. The dry powder was reconstituted with saline and heated between 37° C. to 50° C. to reconstitution, which results in a clear solution of particles containing both the 18A-C-II peptide and POPC.
Hypertriglyceridemia was induced in C57B1/6 mice by a 2 mg (60 mg/kg) bolus IV injection of free 5A peptide (A). […] In addition, a single IV dose of 1 mg of the 18A-C-II:POPC peptide lowered the plasma triglyceride levels in normal C57B1 mice (□) compared to saline (⋄).

[6] = system: BHK and BHK-ABCA1 cells; assay: Cholesterol efflux from BHK and BHK-ABCA1 cells; format: cell-based; details: 20 ug/ml free peptide, 18 hours
Experimental: FIG. 23 is a graph illustrating the effect of 18A-C-II peptide on cholesterol efflux. BHK and BHK-ABCA1 cells were loaded with ^3H-cholesterol for 24 hours at 37° C. and then 20 ug/ml of the free 18A-C-II peptide was added as cholesterol acceptor to efflux for 18 hours. Percentage efflux was calculated by subtracting the radioactive counts in the blank from the radioactive counts in the presence of an acceptor and then dividing the result by the sum of the radioactive counts in the medium plus the cell fraction.
The effect of 18A-C-II peptide on cholesterol efflux was investigated by loading BHK and BHK-ABCA1 cells with ^3H-cholesterol for 24 hours at 37° C. and then adding 20 ug/ml of the free 18A-C-II peptide as cholesterol acceptor to efflux for 18 hours. Percentage efflux was calculated by subtracting the radioactive counts in the blank from the radioactive counts in the presence of an acceptor and then dividing the result by the sum of the radioactive counts in the medium plus the cell fraction.

[7] = system: red blood cells; assay: Red blood cell hemolysis assay; format: cell-based; details: 1 hour at 37° C., maximum dose tested
Experimental: Red blood cells were incubated with the indicated concentration of the peptides for 1 hour at 37° C. Results are expressed as the mean of triplicates ±1 SD.
Approximately 25% of the red blood cells were lysed after 1 hour at the maximum dose tested (FIG. 9). Overall, the modified peptides containing the Ala substitutions were less cytotoxic, and the degree of cytotoxicity closely correlated with the number of Ala substitutions.

[8] = system: Tangier disease fibroblast cell line with a truncated non-functional ABCA1 transporter; assay: Cholesterol efflux from Tangier disease fibroblasts; format: cell-based; details: 10 μg/ml, 18 hour
Experimental: (§4) FIG. 5 is a graph illustrating ABCA1-independent efflux of cholesterol from Tangier disease fibroblasts. Normal skin fibroblasts (open bars) and Tangier disease skin fibroblasts (solid bars) were examined for their ability to efflux cholesterol over an 18 hour period when treated with 10 μg/ml apoA-I (A), 10 μg/ml L-37pA (L), and 10 μg/ml D-37pA (D). Results are expressed as the mean of triplicates ±1 SD.
(§5) In order to confirm that the residual lipid efflux from the control cells to L-37pA and D-37pA (see FIG. 1) was not due to a low level of endogenous ABCA1, a Tangier disease fibroblast cell line with a truncated non-functional ABCA1 transporter (Remaley et al., Proc. Natl. Acad. Sci. USA 96:12685-12690, 1999) was evaluated for lipid efflux (FIG. 5).

[9] = system: Normal skin fibroblasts; assay: Cholesterol efflux from normal skin fibroblasts; format: cell-based; details: 10 μg/ml, 18 hour
Experimental: as §4, §5

[10] = system: ABCA1 cells; assay: Competitive binding of radiolabeled L-37pA to ABCA1 cells; design: species or system human; details: 8 μM, the maximum concentration tested; 4° C.
Experimental: FIGS. 7A-7B are a pair of graphs illustrating the competitive binding of L-37pA peptide to ABCA1 transfected cells and control cells. ABCA1 cells (FIG. 7A) and control cells (FIG. 7B) were incubated for 3 hours at 4° C. with the indicated concentration of the competitor proteins [L-37pA (triangle), D-37pA (open square), apoA-I (closed circle), L2D-37pA (star), and L3D-37pA (open circle)] and were then washed and incubated for 1 hour at 4° C. with 1 μg/ml of radiolabeled L-37pA peptide. Results are expressed as the mean of triplicates ±1 SD.
The L-37pA peptide was labeled with ^125I using iodine monochloride. Confluent cells grown on 12-well plates were incubated for 3 hours at 4° C. with the indicated concentration of the unlabeled competitor peptide in αMEM media plus 10 mg/ml of BSA (FIG. 7). […] Cells were washed three times, and cell bound counts were determined after solubilization with 0.1 N NaOH.
A two-step sequential competitive binding assay was performed in order to prevent any potentially interfering interaction of the radiolabeled peptide with the competitor proteins (Mendez et al., J. Clin. Invest. 94:1698-1705, 1994). The cells were first incubated with the competitor proteins for 3 hours, washed, and then the cell binding of the radiolabeled L-37 peptide was measured. […]

[11] = 10 μg/ml, 30 hour efflux period

Q: With `C[C@H](CCC(=O)NCCC[N+](C)(C)CCCS(=O)(=O)[O-])[C@H]1CC[C@H]2[C@@H]3[C@H](O)C[C@@H]4C[C@H](O)CC[C@]4(C)[C@H]3C[C@H](O)[C@]12C` [CHAPS, reference compound] as the molecule, how does the “cholesterol efflux from ABCA1 cells to detergent” value [1] read?
A: Nearly identical results

Q: What does the source list for `CC(C)C[C@@H](NC(=O)[C@@H](Cc1c[nH]c2ccccc12)NC(=O)[C@H](N)CC(=O)O)C(=O)N[C@H](CCCCN)C(=O)N[C@H](C)C(=O)N[C@H](Cc1ccccc1)C(=O)N[C@H](Cc1ccc(O)cc1)C(=O)N[C@H](CC(=O)O)C(=O)N[C@H](CCCCN)C(=O)N[C@@H](C(=O)N[C@H](C)C(=O)N[C@H](CCC(=O)O)C(=O)N[C@H](CCCCN)C(=O)N[C@H](CC(C)C)C(=O)N[C@H](CCCCN)C(=O)N[C@H](CCC(=O)O)C(=O)N[C@H](C)C(=O)N[C@H](Cc1ccccc1)C(=O)N1CCC[C@@H]1C(=O)N[C@H](CC(=O)O)C(=O)N[C@H](Cc1c[nH]c2ccccc12)C(=O)N[C@H](CC(C)C)C(=O)N[C@H](CCCCN)C(=O)N[C@H](C)C(=O)N[C@H](Cc1ccccc1)C(=O)N[C@H](Cc1ccc(O)cc1)C(=O)N[C@H](CC(=O)O)C(=O)N[C@H](CCCCN)C(=O)N[C@@H](C(=O)N[C@H](C)C(=O)N[C@H](CCC(=O)O)C(=O)N[C@H](CCCCN)C(=O)N[C@H](CC(C)C)C(=O)N[C@H](CCCCN)C(=O)N[C@H](CCC(=O)O)C(=O)N[C@H](C)C(=O)N[C@H](Cc1ccccc1)C(=O)O)C(C)C)C(C)C` [D-37pA] (H-[dD][dW][dL][dK][dA][dF][dY][dD][dK][dV][dA][dE][dK][dL][dK][dE][dA][dF][dP][dD][dW][dL][dK][dA][dF][dY][dD][dK][dV][dA][dE][dK][dL][dK][dE][dA][dF]-OH; N-terminus and C-terminus assumed)?
A: release of LDH from control cells, percentage of total cell LDH [2]: 6.6%±0.1; release of LDH from ABCA1 cells, percentage of total cell LDH [3]: 5.7%±0.1

Q: `C[C@H](CCC(=O)NCCS(=O)(=O)O)[C@H]1CC[C@H]2[C@@H]3CC[C@@H]4C[C@H](O)CC[C@]4(C)[C@H]3C[C@H](O)[C@]12C` [taurodeoxycholate, reference compound] was tested. Which “cholesterol efflux from control cells to detergent” value ([4]; taurodeoxycholate 0.02%, 1 hour) did it give?
A: Approximately the same amount

Q: And the “cholesterol efflux from ABCA1 cells to detergent” value [1]?
A: small amount of cholesterol efflux

Q: “DWLKAFYDKVAEKLKEAFPDLYSKSTAAMSTYTGIFTDQVLSVLKGEE [18A-C-II]” was tested. Which “increase in plasma triglycerides induced by free 5A peptide (60 mg/kg IV)” value [5] did it give?
A: significantly reduced; also recorded: significantly halted

Q: What about the “cholesterol efflux, BHK-ABCA1 versus BHK cells” value [6] of the same molecule?
A: significant difference

Q: Which “red blood cells lysed (hemolysis)” value [7] does the source give for “DWLKAFYDKVAEKLKEAFPDWAKAAYDKAAEKAKEAA [5A]” here?
A: no appreciable hemolysis

Q: “DWLKAFYDKVAEKLKEAFPDWLKAAYDKAAEKAKEAA [4A]” was tested. Which “red blood cells lysed (hemolysis)” value [7] did it give?
A: no appreciable hemolysis

Q: “DWLKAFYDKVAEKLKEAFPDWLKAAYDKVAEKAKEAA [3A]” was tested. Which “red blood cells lysed (hemolysis)” value [7] did it give?
A: moderate degree of hemolysis

Q: How did the “lipid (cholesterol and phospholipid) efflux from control cells” value (“lipid … from control cells” for short) [4] turn out when “DWLKAFYDKVAEKLKEAFPDWLKAFYDKVA EKLKEAF [37pA, reference compound]” was run?
A: also able to mediate cholesterol efflux

Q: And the “lipid (cholesterol and phospholipid) efflux from ABCA1 cells” value (shortened to “lipid … from ABCA1 cells”) ([1]; 18 hours)?
A: promoted ABCA1-mediated cholesterol efflux

Q: Which “red blood cells lysed (hemolysis)” value [7] does the source give for “DWLKAFYDKVAEKLKEAFPDWLKAFYDKVAEKAKEAA [2A]” here?
A: moderate degree of hemolysis

Q: For “DWLKAFYDKVAEKLKEAFPDWLKAFYDKVAEKAKEAF [1A]”, which “red blood cells lysed (hemolysis)” value [7] is on record?
A: moderate degree of hemolysis

Q: With “DWLKAFYDKVAEKLKEAFPDWLKAFYDKVAEKLKEAF [L-37pA]” as the molecule, how does the “release of LDH from control cells, percentage of total cell LDH” value [2] read?
A: 6.1%±0.2

Q: What about the “release of LDH from ABCA1 cells, percentage of total cell LDH” value [3] of the same molecule?
A: 4.3%±0.04

Q: Which “cholesterol efflux from ABCA1 cells to detergent” value [1] does the source give for NP-40 [reference compound] here?
A: Nearly identical results

Q: Which “lipid … from control cells” value [4] does the source give for “RMRITERDDFRGQMSEITDDCPSLQDRFHLTEVHSLRVLEGS (Gamma crystalline peptide.) [contains two non-amphipathic alpha helices, reference compound]” here?
A: completely ineffective

Q: What about the “lipid … from ABCA1 cells” value ([1]; 18 hours) of the same molecule?
A: completely ineffective

Q: “apoA-I: apolipoprotein A-I, the predominant protein constituent of HDL” was tested. Which “cholesterol efflux from Tangier disease fibroblasts” value [8] did it give?
A: did not efflux significant amounts

Q: And the “cholesterol efflux from normal fibroblasts” value [9]?
A: effluxed cholesterol

Q: What about the “cholesterol efflux from control cells over the time course” value [4, 11] of the same molecule?
A: no significant increase above background

Q: What about the “lipid … from control cells” value [4] of the same molecule?
A: do not efflux significant amounts; also recorded: unable

Q: And the “binding of labeled L-37pA to ABCA1 cells blocked by competitor” value [10]?
A: approximately 30%

Q: And the “cholesterol efflux from ABCA1 cells after fixation with paraformaldehyde” value ([1]; 10 μg/ml, 18 hours, 3% paraformaldehyde)?
A: completely blocked

Q: What about the “time at which cholesterol efflux from ABCA1 cells was first detectable” value [1, 11] of the same molecule?
A: 2 h

Q: And the “lipid … from ABCA1 cells” value ([1]; 18 hours)?
A: do so after transfection with ABCA1

Q: And the “protein concentration at which lipid efflux began to show saturation” value ([1]; 18 hours)?
A: ~10 µg/mL

Q: What about the “molar concentration at which lipid efflux began to show saturation” value ([1]; corresponds to 10 μg/ml) of the same molecule?
A: 0.36 µM
